Assay results reported in ChEMBL document CHEMBL5723379, “Affinity On-target Cellular Literature for EUbOPEN Chemogenomic Library” (2024).

How the values were obtained:
[1] = biological target: T1, Peroxisome proliferator-activated receptor alpha (Homo sapiens, UniProt Q07869); experiment: Affinity On-target Cellular interaction: (Reporter gene assay (HEK293T cells)) EUB0001147a PPARA; assay type: functional, cell-based, HEK-293T; design: mode of action Agonist, recommended concentration 1 uM
T1 sequence (Q07869 whole entry): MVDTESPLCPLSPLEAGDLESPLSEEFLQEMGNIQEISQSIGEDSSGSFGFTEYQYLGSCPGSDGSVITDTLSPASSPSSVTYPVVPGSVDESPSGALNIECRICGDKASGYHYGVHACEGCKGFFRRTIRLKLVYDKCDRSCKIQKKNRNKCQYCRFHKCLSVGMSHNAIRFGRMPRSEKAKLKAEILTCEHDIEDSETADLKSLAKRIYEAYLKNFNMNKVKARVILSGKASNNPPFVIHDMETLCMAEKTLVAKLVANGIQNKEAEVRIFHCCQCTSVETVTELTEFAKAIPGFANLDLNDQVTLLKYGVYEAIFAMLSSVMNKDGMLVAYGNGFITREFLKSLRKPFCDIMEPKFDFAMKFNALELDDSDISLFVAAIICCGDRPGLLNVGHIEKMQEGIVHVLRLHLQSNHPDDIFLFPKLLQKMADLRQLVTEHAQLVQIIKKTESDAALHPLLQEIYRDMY

[2] = biological target: T2, Peroxisome proliferator-activated receptor gamma (Homo sapiens, UniProt P37231); experiment: Affinity On-target Cellular interaction: (Reporter gene assay (HEK293T cells)) EUB0001147a PPARG; assay type: functional, cell-based, HEK-293T; design: mode of action Agonist, recommended concentration 1 uM
T2 sequence (P37231 whole entry): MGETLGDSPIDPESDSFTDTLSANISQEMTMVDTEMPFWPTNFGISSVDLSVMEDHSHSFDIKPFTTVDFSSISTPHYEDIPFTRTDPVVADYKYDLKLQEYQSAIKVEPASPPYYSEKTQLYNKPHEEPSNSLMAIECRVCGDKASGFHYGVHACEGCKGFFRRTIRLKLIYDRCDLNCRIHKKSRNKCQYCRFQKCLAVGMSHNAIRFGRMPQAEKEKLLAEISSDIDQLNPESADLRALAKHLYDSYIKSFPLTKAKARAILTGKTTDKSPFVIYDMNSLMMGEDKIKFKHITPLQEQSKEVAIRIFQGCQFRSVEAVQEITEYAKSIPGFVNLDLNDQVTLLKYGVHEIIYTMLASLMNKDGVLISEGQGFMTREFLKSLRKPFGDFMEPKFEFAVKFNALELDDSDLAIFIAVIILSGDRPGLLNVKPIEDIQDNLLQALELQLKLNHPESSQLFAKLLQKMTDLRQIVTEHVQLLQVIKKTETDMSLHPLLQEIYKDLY

[3] = biological target: Nucleotide triphosphate diphosphatase NUDT15 (Homo sapiens) (UniProt Q9NV35); experiment: Affinity On-target Cellular interaction: (Cellular thermal shift assay, HL-60 cells) EUB0002330a NUDT15; assay type: functional, cell-based; design: recommended concentration 1 uM; details: Affinity On-target Cellular Source Knowledge https://www.nature.com/articles/s41589-020-0592-z
Nucleotide triphosphate diphosphatase NUDT15 (Homo sapiens), sequence (Q9NV35 whole entry): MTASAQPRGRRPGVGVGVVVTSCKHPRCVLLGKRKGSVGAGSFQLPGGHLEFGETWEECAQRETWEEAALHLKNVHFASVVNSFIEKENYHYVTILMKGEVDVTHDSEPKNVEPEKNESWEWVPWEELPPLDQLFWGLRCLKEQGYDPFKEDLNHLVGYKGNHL

[4] = biological target: T2, Peroxisome proliferator-activated receptor gamma; experiment: Affinity On-target Cellular interaction: (Reporter gene assay (HEK293T cells)) EUB0001150a PPARG; assay type: functional, cell-based, HEK-293T; design: mode of action Antagonist, recommended concentration 10 uM
[5] = biological target: T1, Peroxisome proliferator-activated receptor alpha; experiment: Affinity On-target Cellular interaction: (Reporter gene assay (HEK293T cells)) EUB0001150a PPARA; assay type: functional, cell-based, HEK-293T; design: mode of action Antagonist, recommended concentration 10 uM
[6] = biological target: Retinoic acid receptor gamma (Homo sapiens, UniProt P13631); experiment: Affinity On-target Cellular interaction: (Reporter gene assay (HEK293T cells)) EUB0000835a RARG; assay type: functional, cell-based, HEK-293T; design: mode of action Agonist, recommended concentration 1 uM
Retinoic acid receptor gamma, sequence (P13631 whole entry): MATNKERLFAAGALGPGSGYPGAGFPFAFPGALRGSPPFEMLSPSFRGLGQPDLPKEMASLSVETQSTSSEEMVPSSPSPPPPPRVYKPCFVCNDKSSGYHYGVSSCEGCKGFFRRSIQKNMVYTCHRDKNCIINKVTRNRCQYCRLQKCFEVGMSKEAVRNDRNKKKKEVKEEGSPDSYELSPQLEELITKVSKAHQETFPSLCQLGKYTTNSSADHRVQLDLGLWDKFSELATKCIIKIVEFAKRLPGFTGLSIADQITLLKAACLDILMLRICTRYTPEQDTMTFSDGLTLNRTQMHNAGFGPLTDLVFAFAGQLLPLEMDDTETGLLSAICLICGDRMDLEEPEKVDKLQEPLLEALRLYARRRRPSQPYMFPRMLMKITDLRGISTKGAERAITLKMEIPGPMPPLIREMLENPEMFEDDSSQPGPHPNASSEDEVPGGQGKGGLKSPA

[7] = biological target: T3, Retinoic acid receptor alpha (Homo sapiens, UniProt P10276); experiment: Affinity On-target Cellular interaction: (Reporter gene assay (HEK293T cells)) EUB0000835a RARA; assay type: functional, cell-based, HEK-293T; design: mode of action Agonist, recommended concentration 1 uM
T3 sequence (P10276 whole entry): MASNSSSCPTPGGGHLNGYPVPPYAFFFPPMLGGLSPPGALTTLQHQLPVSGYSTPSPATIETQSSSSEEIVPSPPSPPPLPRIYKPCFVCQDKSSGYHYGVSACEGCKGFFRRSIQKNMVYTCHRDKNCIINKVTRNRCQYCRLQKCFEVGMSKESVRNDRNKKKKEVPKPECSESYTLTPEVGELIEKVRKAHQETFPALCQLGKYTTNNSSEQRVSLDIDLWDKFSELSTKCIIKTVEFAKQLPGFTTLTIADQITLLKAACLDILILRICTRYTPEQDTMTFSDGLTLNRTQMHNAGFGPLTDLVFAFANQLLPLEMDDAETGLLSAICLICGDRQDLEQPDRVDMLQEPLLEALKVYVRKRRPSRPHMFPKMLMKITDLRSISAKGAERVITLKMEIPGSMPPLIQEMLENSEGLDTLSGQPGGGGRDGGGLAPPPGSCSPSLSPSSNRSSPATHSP

[8] = biological target: Retinoic acid receptor beta (Homo sapiens, UniProt P10826); experiment: Affinity On-target Cellular interaction: (Reporter gene assay (HEK293T cells)) EUB0000835a RARB; assay type: functional, cell-based, HEK-293T; design: mode of action Agonist, recommended concentration 1 uM
Retinoic acid receptor beta, sequence (P10826 whole entry): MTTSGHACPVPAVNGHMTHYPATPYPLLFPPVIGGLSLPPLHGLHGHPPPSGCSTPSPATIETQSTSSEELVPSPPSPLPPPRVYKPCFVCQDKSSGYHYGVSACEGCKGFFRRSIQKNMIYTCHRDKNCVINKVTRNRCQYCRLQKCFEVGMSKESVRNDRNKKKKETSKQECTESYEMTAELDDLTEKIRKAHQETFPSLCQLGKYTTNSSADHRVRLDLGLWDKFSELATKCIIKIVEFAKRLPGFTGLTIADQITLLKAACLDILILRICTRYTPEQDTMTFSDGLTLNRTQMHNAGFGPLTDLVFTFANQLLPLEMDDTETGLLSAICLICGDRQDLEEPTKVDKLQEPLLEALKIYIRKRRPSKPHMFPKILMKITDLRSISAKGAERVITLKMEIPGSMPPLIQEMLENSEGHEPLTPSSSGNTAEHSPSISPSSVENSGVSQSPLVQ

[9] = biological target: T1, Peroxisome proliferator-activated receptor alpha; experiment: Affinity On-target Cellular interaction: (Reporter gene assay (HEK293T cells)) EUB0001144a PPARA; assay type: functional, cell-based, HEK-293T; design: mode of action Agonist, recommended concentration 1 uM
[10] = biological target: T2, Peroxisome proliferator-activated receptor gamma; experiment: Affinity On-target Cellular interaction: (Reporter gene assay (HEK293T cells)) EUB0001144a PPARG; assay type: functional, cell-based, HEK-293T; design: mode of action Agonist, recommended concentration 1 uM
[11] = biological target: Vitamin D3 receptor (Homo sapiens, UniProt P11473); experiment: Affinity On-target Cellular interaction: (Reporter gene assay (HEK293T cells)) EUB0000582a VDR; assay type: functional, cell-based, HEK-293T; design: mode of action Agonist, recommended concentration 1 uM
Vitamin D3 receptor, sequence (P11473 whole entry): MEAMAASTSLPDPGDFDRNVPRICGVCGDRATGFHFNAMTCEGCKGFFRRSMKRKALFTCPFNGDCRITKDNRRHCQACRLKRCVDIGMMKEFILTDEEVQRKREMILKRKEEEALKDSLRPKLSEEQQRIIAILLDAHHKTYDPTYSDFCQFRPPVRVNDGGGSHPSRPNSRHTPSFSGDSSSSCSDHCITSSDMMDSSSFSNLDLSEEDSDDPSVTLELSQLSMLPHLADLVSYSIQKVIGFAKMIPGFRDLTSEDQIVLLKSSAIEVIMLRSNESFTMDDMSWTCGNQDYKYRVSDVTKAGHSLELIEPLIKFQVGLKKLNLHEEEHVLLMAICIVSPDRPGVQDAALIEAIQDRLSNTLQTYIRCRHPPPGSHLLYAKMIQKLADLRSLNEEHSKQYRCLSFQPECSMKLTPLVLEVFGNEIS

[12] = biological target: T4, Oxysterols receptor LXR-beta (Homo sapiens, UniProt P55055)
T4 sequence (P55055 whole entry): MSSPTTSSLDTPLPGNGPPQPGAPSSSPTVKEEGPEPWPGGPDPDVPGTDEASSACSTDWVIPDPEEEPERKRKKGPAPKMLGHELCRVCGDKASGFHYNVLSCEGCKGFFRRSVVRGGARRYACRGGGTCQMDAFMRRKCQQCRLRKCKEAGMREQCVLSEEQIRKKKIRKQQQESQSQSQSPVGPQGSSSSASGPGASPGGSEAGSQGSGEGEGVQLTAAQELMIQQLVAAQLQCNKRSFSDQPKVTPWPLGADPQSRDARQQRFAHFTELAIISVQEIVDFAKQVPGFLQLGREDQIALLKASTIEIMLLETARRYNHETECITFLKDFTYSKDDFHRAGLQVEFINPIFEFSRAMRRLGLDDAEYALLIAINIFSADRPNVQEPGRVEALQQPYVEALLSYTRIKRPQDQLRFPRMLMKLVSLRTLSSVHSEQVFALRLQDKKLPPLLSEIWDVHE

[13] = biological target: T5, Oxysterols receptor LXR-alpha (Homo sapiens, UniProt Q13133); experiment: Affinity On-target Cellular interaction: (Reporter gene assay (HEK293T cells)) EUB0000082b NR1H3; assay type: functional, cell-based, HEK-293T; design: mode of action Agonist, recommended concentration 3 uM
T5 sequence (Q13133 whole entry): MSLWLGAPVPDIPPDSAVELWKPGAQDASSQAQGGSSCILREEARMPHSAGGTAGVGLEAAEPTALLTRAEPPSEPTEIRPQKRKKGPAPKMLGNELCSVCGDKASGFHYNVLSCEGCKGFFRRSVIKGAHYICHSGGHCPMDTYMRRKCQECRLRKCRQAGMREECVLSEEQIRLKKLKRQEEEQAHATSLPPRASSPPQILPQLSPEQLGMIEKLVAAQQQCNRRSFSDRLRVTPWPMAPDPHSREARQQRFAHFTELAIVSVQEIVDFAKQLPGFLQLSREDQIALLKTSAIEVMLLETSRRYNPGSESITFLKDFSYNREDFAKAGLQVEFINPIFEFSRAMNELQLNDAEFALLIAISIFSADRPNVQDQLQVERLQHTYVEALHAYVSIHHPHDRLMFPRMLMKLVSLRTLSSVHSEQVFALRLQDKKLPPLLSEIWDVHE

[14] = biological target: Bile acid receptor (Homo sapiens, UniProt Q96RI1); experiment: Affinity On-target Cellular interaction: (Reporter gene assay (HEK293T cells)) EUB0000182b NR1H4; assay type: functional, cell-based, HEK-293T; design: mode of action Agonist, recommended concentration 1 uM
Bile acid receptor, sequence (Q96RI1 whole entry): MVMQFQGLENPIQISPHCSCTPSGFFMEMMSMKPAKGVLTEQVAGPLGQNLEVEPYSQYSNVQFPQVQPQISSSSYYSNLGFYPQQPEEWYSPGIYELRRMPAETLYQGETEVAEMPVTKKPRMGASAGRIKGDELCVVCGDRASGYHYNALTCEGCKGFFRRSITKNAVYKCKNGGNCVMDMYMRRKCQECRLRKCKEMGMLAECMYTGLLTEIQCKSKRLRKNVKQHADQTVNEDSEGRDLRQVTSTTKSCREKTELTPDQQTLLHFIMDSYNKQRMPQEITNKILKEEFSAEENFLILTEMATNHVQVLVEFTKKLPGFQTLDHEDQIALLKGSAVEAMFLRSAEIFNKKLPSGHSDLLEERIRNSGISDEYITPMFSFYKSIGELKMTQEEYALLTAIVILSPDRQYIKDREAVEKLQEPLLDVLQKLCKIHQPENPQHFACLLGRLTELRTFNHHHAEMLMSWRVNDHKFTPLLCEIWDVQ

[15] = biological target: T5, Oxysterols receptor LXR-alpha; experiment: Affinity On-target Cellular interaction: (Reporter gene assay (HEK293T cells)) EUB0000183b NR1H3; assay type: functional, cell-based, HEK-293T; design: mode of action Antagonist, recommended concentration 3 uM
[16] = biological target: T4, Oxysterols receptor LXR-beta; experiment: Affinity On-target Cellular interaction: (Reporter gene assay (HEK293T cells)) EUB0000183b NR1H2; assay type: functional, cell-based, HEK-293T; design: mode of action Antagonist, recommended concentration 3 uM
[17] = biological target: T3, Retinoic acid receptor alpha; experiment: Affinity On-target Cellular interaction: (Reporter gene assay (HEK293T cells)) EUB0000565a RARA; assay type: functional, cell-based, HEK-293T; design: mode of action Agonist, recommended concentration 1 uM
[18] = biological target: T1, Peroxisome proliferator-activated receptor alpha; experiment: Affinity On-target Cellular interaction: (Reporter gene assay (HEK293T cells)) EUB0000581a PPARA; assay type: functional, cell-based, HEK-293T; design: mode of action Agonist, recommended concentration 1 uM

For `CSc1ccc(C(=O)/C=C/c2cc(C)c(OC(C)(C)C(=O)O)c(C)c2)cc1` [ELAFIBRANOR], the EC50 [1] was 130 nM and the EC50 [2] was 410 nM.
In the case of `O=C(c1ccc2[nH]ccc2c1)N1CCN(S(=O)(=O)c2ccc3[nH]c(=O)oc3c2)CC1`, the K [3] is reported as 280 nM.
Work on `COC(=O)c1sccc1S(=O)(=O)Nc1ccc(Nc2ccccc2)cc1OC` yielded an IC50 [4] of 7600 nM and an IC50 [5] of 6100 nM.
With `C[C@H]1[C@H]2CC[C@H]3[C@@H]4CC=C5C[C@@H](N(C)C)CC[C@]5(C)[C@H]4CC[C@]23CN1C` [CONESSINE] the EC50 [6] was 501 nM, the EC50 [7] was 630 nM and the EC50 [8] was 10 nM.
`CCO[C@@H](Cc1ccc(OCCc2ccc(OS(C)(=O)=O)cc2)cc1)C(=O)O` [TESAGLITAZAR] showed an EC50 [9] of 290 nM and an EC50 [10] of 130 nM.
`C=C1/C(=C\C=C2/CCC[C@]3(C)[C@@H]([C@H](C)/C=C/C=C/C(O)(CC)CC)CC[C@@H]23)C[C@@H](O)C[C@@H]1O` [SEOCALCITOL] gave an EC50 [11] of 110 nM.
`Fc1ccc(-c2c3cccc(C(F)(F)F)c3nn2Cc2ccc(F)cc2Cl)cc1` [LXR-623] showed an EC50 [12] of 4000 nM and an EC50 [13] of 7000 nM.
For `COC(=O)/C=C/c1cccc(N(Cc2ccc(-c3ccc(N(C)C)cc3)cc2)C(=O)C2CCCCC2)c1` [FEXARAMINE], the EC50 [14] was 960 nM.
Work on `Cc1cc(C)c(S(=O)(=O)N(Cc2ccc(-c3cccc(S(C)(=O)=O)c3)cc2)Cc2ccc(C(F)(F)F)o2)c(C)c1` yielded an IC50 [15] of 100 nM and an IC50 [16] of 40 nM.
`CC1(C)C(=O)C(C)(C)c2cc(C(=O)Nc3ccc(C(=O)O)cc3)ccc21` gave an EC50 [17] of 110 nM.
For `CC(C)c1ccc(CC(=O)N2CCC[C@@H](c3cccc(OC(C)(C)C(=O)O)c3)C2)cc1`, the EC50 [18] was 50 nM.
